From US20100120810A1, “COMPOUNDS AND METHODS FOR MODULATING RHO GTPASES” (priority 2007, published 2010) come the findings set out here.

Counter-ions that a name gives are not always drawn. Like-named read-outs stand apart in the source and are kept apart here. Where only a bound is given, the exact number is not on record here.

Assay [1] concerns the target T1, Rac1 activated by DH/PH domain of Guanine nucleotide Exchange Factor Tiam1 (Rac1/Tiam1) (Homo sapiens, UniProt P63000).
T1 construct: made in house; host or cells: E. coli BL21 Codon+RIL
Briefly: Nucleotide binding assay: BODIPY-GTP binding to Rac1 activated by Tiam1 DH/PH. Format: biochemical. The settings on record: for inhibition at 50 µM: read-out: Rac1 % inhibition of BODIPY-GTP binding. On the procedure: (§1) Fluorescence of GTP analog BODIPY-GTP increases when it binds to small G proteins. This property was used to assess ability of compounds to inhibit nucleotide binding to Rac1, Rac1b and Cdc42. 2 μM GST-Rac1 and 6 μg His6-Tiam1-DH/PH were diluted in a buffer containing 20 mM Tris, 50 mM NaCl, and 1 mM MgCl2. This mixture was loaded in a 96-well plate. Fluorescence recording were started (λEx: 485 nm; λEm: 538 nm) using a spectrofluorimeter (Fluoroskan; Thermolab Systems). Assay was initiated by the addition of 2 μM BODIPY-GTP with or without various doses of test compound. Fluorescence values were recorded, and data were processed as follows: background fluorescence (unbound BODIPY-GTP) was retrieved from fluorescence values.
(§2) This assay allows determining whether compounds can inhibit the binding of a fluorescent nucleotide to recombinant small G proteins of interest. The effect of various alkaloid compounds on binding of BODIPY-GTP to Rac1 activated by DH/PH domain of Guanine nucleotide Exchange Factor Tiam1 (Rac1/Tiam1), Rac1b and Cdc42 is described below.

The next assay addresses T2, Rac1b (Homo sapiens, UniProt P63000).
T2 construct: GST (N); made in house; host or cells: E. coli BL21 Codon+RIL
Briefly: Nucleotide binding assay: BODIPY-GTP binding to Rac1b. The class given is biochemical. The settings on record: for IC50: dose-response study; for inhibition at 50 µM: read-out: Rac1b % inhibition of BODIPY-GTP binding. On the procedure: as §1, §2

The next assay addresses T3, Cdc42 (Homo sapiens, UniProt P60953).
T3 construct: GST (N); made in house; host or cells: E. coli BL21 Codon+RIL
The experiment in a line: Nucleotide binding assay: BODIPY-GTP binding to Cdc42. Format: biochemical. The settings on record: for inhibition at 50 µM: read-out: Cdc42 % inhibition of BODIPY-GTP binding; for IC50: dose-response study. As to the method:
as §1, §2

Assay [2] has as its target T4, HEK293 cells overexpressing human Rac1b (Homo sapiens, UniProt P63000).
T4 construct: expressed in transfected cells; host or cells: HEK293
The experiment in a line: Rac1b activation assay (G-LISA). Format: cell-based. As to the method:
Rac1b activation assay: HEK293 cells overexpressing human Rac1b were plated in 100 mm diameter dishes and grown for 5 days in MEM medium supplemented with 10% FBS, L-Glutamine and antibiotics. Cells were then treated with 50 μM of compounds or the solvent for 5 minutes, and the GTP loading of Rac1b was measured using a Rac Activation Assay Kit (Cytoskeleton) according to manufacturer's recommendations. Briefly, this assay uses a 96-well plate coated with RBD domain of Rho-family effector proteins. […] The signal is then developed with OPD reagent.

The test system of the next assay is HCT116 cell line. Briefly: Soft agar assay (anchorage-independent colony formation). The settings on record: HCT116, 7 days. The class given is cell-based. The source says: Colony formation in soft agar is the most widely used assay to evaluate anchorage-independent growth potential and represents one of the best in vitro assays that correlates strongly with in vivo tumorigenic cell growth potential. Normal cells require adherence and spreading onto a solid substratum in order to remain viable and proliferate. In contrast, cancer cell line HCT116 (ATCC clone number CCL-247) lost this requirement and therefore can form proliferating colonies of cells when suspended in a semisolid agar medium. The assay was performed in 24-well plates, using duplicates wells for each compound concentration. Briefly, a 0.5% Bacto™ Agar (BD Biosciences) bottom layer (prepared in HCT116 complete growth medium supplemented or not with the tested compound) was poured first and allowed to harden (0.3 ml per well). HCT116 were trypsinized to generate a uniform single cell suspension. Five×10^3 cells per well were resuspended in 0.3% agar supplemented with complete growth medium, with or without several compound concentrations to form the top layer (0.3 ml per well). HCT116 were allowed to grow for 7 days in these conditions and then analysed for colonies formation. Analysis was performed from pictures taken under a microscope that are representative from 2 different fields of the well. For each field, 2 different focal plans were taken and were merged using ImageJ software. The number of colonies were scored and colonies' size were measured. IC50 were determined for the number and size of colonies using GraphPad Prism (GraphPad) software. Data are mean values of 2 to 3 independent experiments.

The mark [3] stands for this setting: final concentration of 50 μM, Rac1/Tiam1.
Where [4] appears, read: HEK293, 50 μM, 5 minutes, GTP loading of Rac1b, read-out: G-LISA % inhibition @ 50 μM.
The mark [5] stands for this setting: Homo sapiens, HCT-116, 168 h, read-out: Soft agar assay IC50, Clone Number.
Where [6] appears, read: Homo sapiens, HCT-116, 168 h, read-out: Soft agar assay IC50, Clone Size.

T3 sequence (P60953 whole entry, species assumed): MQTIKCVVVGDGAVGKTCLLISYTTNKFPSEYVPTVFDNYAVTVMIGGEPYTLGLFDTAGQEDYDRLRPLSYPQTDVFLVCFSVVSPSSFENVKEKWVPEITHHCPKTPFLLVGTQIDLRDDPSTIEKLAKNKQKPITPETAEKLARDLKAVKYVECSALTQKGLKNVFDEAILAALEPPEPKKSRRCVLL

With `COc1ccc2cc3[n+](cc2c1OC)CCc1cc(O)c(O)cc1-3` [Compound 4, 9,10-dimethoxy-5,6-dihydro-isoquino[3,2-a]isoquinolinylium-2,3-diol chloride], the IC50 in assay [1] (dose-response study) is 58.6 ± 16.9 µM; at Rac1b it was 23.8 ± 2.9 µM. Besides, the inhibition at 50 µM in assay [1] was 39 ± 2%; on Rac1b it was 54 ± 2%; at Cdc42 (final concentration of 50 μM), 31 ± 9%; in assay [2] (HEK293, read-out: G-LISA % inhibition @ 50 μM) it was 30 ± 5%.
As to `COc1cc2cc(-c3cccc(C(C)=O)c3)nc(C)c2cc1OC` [Compound 24, 1-(3-(6,7-Dimethoxy-1-methylisoquinolin-3-yl)phenyl)ethanone hydrochloride], the inhibition at 50 µM in assay [1] (setting [3]) is 18 ± 3%; at Rac1b (final concentration of 50 μM) it was 27 ± 2%; on Cdc42 (final concentration of 50 μM) it was 7 ± 2%; in assay [2] (setting [4]) it was 19 ± 5%.
Regarding `COc1cc2cc(-c3ccc(O)c(O)c3)nc(C)c2cc1OC` [Compound 26, 4-(6,7-Dimethoxy-1-methylisoquinolin-3-yl)benzene-1,2-diol hydrochloride], the inhibition at 50 µM on Cdc42 (final concentration of 50 μM) turned out to be 15 ± 1%. Further, the 50% inhibitory concentration (IC50) in the assay with HCT116 cell line (setting [5]) turned out to be 14.8 ± 3.3 µM; in the assay on HCT116 cell line (setting [6]) it was 8.5 ± 0.9 µM.
`COc1cc(-c2cc3cc(OC)c(OC)cc3c(C)n2)ccc1O` [Compound 47, 4-(6,7-Dimethoxy-1-methylisoquinolin-3-yl)-2-methoxyphenol hydrochloride]: the inhibition at 50 µM in assay [1] (setting [3]) is 15 ± 3%; on Rac1b (final concentration of 50 μM), 18 ± 1%; at Cdc42 (final concentration of 50 μM), 17 ± 1%; in assay [2] (setting [4]), 13 ± 8%.
`Oc1cc2c(cc1O)C1Cc3ccc(O)c(O)c3CN1CC2` (racemic) [Compound 16, (±)-5,8,13,13a-Tetrahydro-6H-isoquino[3,2-a]isoquinolinylium-2,3,9,10-tetraol hydrochloride]: on Cdc42, the inhibition at 50 µM was found to be 4 ± 6%. For the same compound, the IC50 came out at 6.4 ± 1.3 µM with HCT116 cell line (setting [5]) and 6.2 ± 0.4 µM in the assay with HCT116 cell line (setting [6]).
On to `C[n+]1cc2c(O)c(O)ccc2c2ccc3cc(O)c(O)cc3c21` [Compound 52, 2,3,7,8-Tetrahydroxy-5-methylbenzo[c]phenanthridinium chloride], for which the IC50 at Cdc42 worked out at 22 ± 2 µM; with HCT116 cell line (setting [5]), 9.8 ± 1.3 µM; in the assay on HCT116 cell line (setting [6]), 9.5 ± 0.4 µM. Further, the inhibition at 50 µM on Cdc42 was determined as 73 ± 4%.
`COc1cc2cc(-c3ccc4ccccc4c3)nc(C)c2cc1OC.Cl` [Compound 41, 6,7-Dimethoxy-1-methyl-3-(naphthalen-2-yl)isoquinolinylium chloride]: the “Cdc42 % inhibition of BODIPY-GTP binding” value at Cdc42 (final concentration of 50 μM, 50 µM) amounted to 52 ± 4%. For the same compound, the figures for the IC50 in the assay with HCT116 cell line (setting [5]) and with HCT116 cell line (setting [6]) were 70.7 ± 5.9 µM and 44.4 ± 4.5 µM, respectively.
On to `COc1ccc2c(c[n+](C)c3c4cc(O)c(O)cc4ccc23)c1OC` [Compound 51, 2,3-Dihydroxy-7,8-dimethoxy-5-methylbenzo[c]phenanthridinium chloride], for which the IC50 on Cdc42 is 78 ± 3 µM; in the assay with HCT116 cell line (setting [5]), above 50 µM; in the assay with HCT116 cell line (setting [6]) it was 11.4 ± 1.9 µM. The inhibition at 50 µM at Cdc42 (final concentration of 50 μM) stood at 38 ± 2%.
Regarding `O=c1cc(CN2CCOCC2)occ1OCCCCCSc1ccnc2cc(C(F)(F)F)ccc12` [EHT 1864, reference compound], the IC50 in the assay with HCT116 cell line (read-out: Soft agar assay IC50, Clone Number) was found to be 57.5 ± 4.5 µM; in the assay with HCT116 cell line (read-out: Soft agar assay IC50, Clone Size), 19.5 ± 2.5 µM.
For the compound `COc1cc2cc(-c3cccc(C(C)=O)c3)[n+](C)c(C)c2cc1OC` [Compound 25, 3-(3-Acetylphenyl)-6,7-dimethoxy-1,2-dimethylisoquinolinium chloride], the inhibition at 50 µM in assay [1] (setting [3]) came out at 20 ± 3%; at Rac1b (final concentration of 50 μM), 29 ± 3%; on Cdc42 (final concentration of 50 μM), 7 ± 1%.
With `COc1cc2c(cc1OC)CN(Cc1cccc(OC)c1OC)CC2` [Compound 7, 2-(2,3-Dimethoxybenzyl)-6,7-dimethoxy-1,2,3,4-tetrahydroisoquinoline hydrochloride], the values for the inhibition at 50 µM (in assay [1] (setting [3]); on Rac1b (final concentration of 50 μM); on Cdc42 (final concentration of 50 μM)) were 0%, 6 ± 3% and -1 ± 1%, respectively.
As to `COc1cc2cc(-c3ccccc3N)nc(C)c2cc1OC` [Compound 37, 2-(6,7-Dimethoxy-1-methylisoquinolin-3-yl)aniline dihydrochloride], the values for the inhibition at 50 µM (in assay [1] (setting [3]); on Rac1b (final concentration of 50 μM); on Cdc42 (final concentration of 50 μM)) were 10 ± 1%, 14 ± 2% and 1 ± 13%, respectively.
As to `COc1cc2cc(-c3ccc4c(c3)OCO4)[n+](C)c(C)c2cc1OC` [Compound 22, 3-(Benzo[d][1,3]dioxol-5-yl)-6,7-dimethoxy-1,2-dimethylisoquinolinium chloride], the inhibition at 50 µM in assay [1] (setting [3]) is 12 ± 2%; on Rac1b (final concentration of 50 μM) it was 18 ± 2%; at Cdc42 (final concentration of 50 μM), 14 ± 3%.
For the compound `Cc1c2cc(O)c(O)cc2cc2c3cc(O)c(O)cc3cc[n+]12` [Compound 15, 8-Methyl-isoquino[3,2-a]isoquinolinylium-2,3,10,11-tetraol chloride], the results for the inhibition at 50 µM (in assay [1] (setting [3]); at Rac1b (final concentration of 50 μM); at Cdc42 (final concentration of 50 μM)) were 63 ± 4%, 72 ± 4% and 70 ± 3%, respectively. For the same compound, on Rac1b, the IC50 was determined as 13.2 ± 4.3 µM.
`COc1cc2cc(-c3ccc(Cl)cc3)nc(C)c2cc1OC` [Compound 42, 3-(4-Chlorophenyl)-6,7-dimethoxy-1-methylisoquinolinylium chloride]: the inhibition at 50 µM worked out at 18 ± 3% in assay [1] (setting [3]), 17 ± 3% at Rac1b (final concentration of 50 μM) and 11 ± 2% at Cdc42 (final concentration of 50 μM).
For `COc1cc2cc(-c3ccccc3)nc(C)c2cc1OC` [Compound 44, 6,7-Dimethoxy-1-methyl-3-phenylisoquinolinylium chloride] the same measures were 10 ± 3%, 8 ± 3% and 10 ± 1%.
For `COc1ccc2c(c1OC)CN1CCc3cc(O)c(O)cc3C1C2` (racemic) [Compound 17, (±)-9,10-Dimethoxy-5,8,13,13a-tetrahydro-6H-isoquino[3,2-a]isoquinoline-2,3-diol hydrochloride], the inhibition at 50 µM is 5 ± 3% in assay [1], -7 ± 4% on Rac1b and -13 ± 12% at Cdc42.
For the compound `COc1cc2cc(-c3ccc(O)c(O)c3)[n+](C)c(C)c2cc1OC` [Compound 27, 3-(3,4-Dihydroxyphenyl)-6,7-dimethoxy-1,2-dimethylisoquinolinium chloride], the results for the inhibition at 50 µM (in assay [1] (setting [3]); at Rac1b (final concentration of 50 μM); at Cdc42 (final concentration of 50 μM)) were 6 ± 2%, 17 ± 1% and 5 ± 2%, respectively.
Regarding `COc1ccc(Cc2nccc3cc(OC)c(OC)cc23)cc1OC` [Compound 9, 1-(3,4-dimethoxybenzyl)-6,7-dimethoxyisoquinoline hydrochloride, reference compound], the inhibition at 50 µM was 1 ± 2% in assay [1], 5 ± 2% at Rac1b and 2 ± 2% on Cdc42.
For the compound `COc1ccc2c(c1OC)C(c1ccccc1)N1CCc3cc4c(cc3C1=C2)OCO4` (stereo not shown) [Compound 10, 9,10-dimethoxy-8-phenyl-5,8-dihydro-2H-6H-[1,3]dioxolo[4,5-g]isoquino[3,2-a]isoquinoline], the inhibition at 50 µM in assay [1] (setting [3]) is 18 ± 2%; on Rac1b (final concentration of 50 μM) it was 27 ± 2%; on Cdc42 (final concentration of 50 μM) it was 17%.
